For one assay, the system named is LoVo (xenograft). The assay can be described thus: LoVo xenograft growth in nude mice. It counts as in vivo. As for the experimental part: One×10^6 LoVo cells in 0.1 mL serum-free RPMI were injected subcutaneously into the backs of 27 male nude mice. Xenografts were grown for 10 days prior to treatment, then randomly allocated to receive twice daily gavage with either 0.1 mL saline alone or containing 10 mg/kg/day of compound 20 for 20 days. Bidirectional tumor diameter was measured using vernier calipers and converted to volumes […]. The animals were sacrificed on Day 30. The protocol was approved by the UNSW Ethics committee.

The next assay is described as follows: Rat Elevated X-Maze Test. It counts as in vivo. Particulars: 0.01 to 1.0 mg/kg s.c. As for the experimental part: The dose was equivalent to 0.1 mg/kg p.o. compound 20.
The nature of assay [1]: Withdrawal from long-term drug or alcohol treatment, mouse light/dark box test. It counts as in vivo. On the procedure: The effect of the compounds of the instant invention is illustrated, for example, in the mouse "light/dark box" test in FIGS. 5-12.
In FIG. 5, five animals were given nicotine, 0.1 mg/kg i.p.b.d. for 14 days. After a 24-hour withdrawal period, compound (20) was given at 1.0 mg/kg i.p.b.d.
FIG. 6 illustrates the effect of long-term treatment and withdrawal from nicotine using compound (20A). Five mice were given nicotine at 0.1 mg/kg i.p.b.d. for 14 days. After a withdrawal period of 24 hours, compound (20A) was given at 10 mg/kg i.p.b.d.
FIG. 7 illustrates the effect of long-term treatment and withdrawal from diazepam with intervention with compound (20). Five mice were given diazepam, at 10 mg/kg i.p.b.d. for seven days. Withdrawal was for a 24-hour period; compound 20 was given at 1.0 mg/kg i.p.b.d.
FIG. 8 illustrates the effect of compound (20A) on the long-term treatment and withdrawal from diazepam. Five mice were given diazepam at 10 mg/kg i.p.b.d. for seven days. After a withdrawal period of 24 hours, compound (20A) was given at 10 mg/kg i.p.b.d.
FIG. 9 illustrates the effect compound (20A) on the long-term treatment and withdrawal from alcohol. Five mice were given alcohol in drinking water 8% w/v for 14 days. After a withdrawal period of 24 hours, compound (20) was given at 1.0 mg/kg i.p.b.d.
Five mice were given alcohol in drinking water, 8% w/v for 14 days. After a withdrawal period of 24 hours, compound (20A) was given at 10 mg/kg i.p.b.d.
FIG. 11 illustrates the effectiveness in the long-term treatment and withdrawal from cocaine. Five mice were given cocaine as 1.0 mg/kg i.p.b.d. for 14 days.
Five mice were given cocaine at 1.0 mg/kg i.p.b.d. for 14 days after a withdrawal period of 24 hours, compound (20a) was given at 1.0 mg/kg i.p.b.d.

Assay [2] can be described thus: Antagonism of intra-accumbens amphetamine hyperactivity (antipsychotic activity). It counts as in vivo, rat. The note with it: 10 mg/kg intraperitoneal; amphetamine 20 μg. On the procedure:
Male Sprague Dawley (CD) Bradford strain rats were used. The rats were housed in groups of five at a temperature of 21°±2° C. on a 12 hour light-dark cycle of lights-on between 07 hours 00 minutes and […]. Rats were fed CRM diet (Labsure) and allowed water ad libitum.
Rats were anesthetized with chloral hydrate (400 mg/kg SC) and placed in a Kopf stereotaxic frame. Chronically indwelling guide cannulae (constructedof stainless steel tubing 0.65 mm diameter held bilaterally in Parspex holders) were implanted using standard stereotaxic techniques to terminate 3.5 mm above the center of the nucleus accumbens (Ant. 9.4, Vert. 0.0, Lat. 1.6) or 5.0 mm above the central nucleus of the amygdala (Ant. 5.8, Vert. -1.8, Lat. ±4.5) (atlas of De Groot, 1959). The guides were kept patent during a 14-day recovery period using stainless steel stylers, 0.3 mm diameter, which extended 0.5 mmbeyond the guide tips.
Rats were manually restrained and the stylers removed. Intracerebral injection cannulae, 0.3 mm diameter, were inserted and drugs delivered in a volume of 0.5 μl over 5 seconds (a further 55 seconds was allowed for deposition) from Hamilton syringes attached via polythene tubing to the injection units. […]
The abilities of the compounds (20) and (20A) to inhibit the hyperactivity caused by the injection of amphetamine into the nucleus accumbens of the rat was measured. […]

The subject of assay [3] is pentagastrin stimulated gastric acid secretion. The assay can be described thus: Pentagastrin stimulated gastric acid secretion (Ghosh and Schild perfused stomach). The note with it: 1 nmole/kg pentagastrin. It counts as in vivo, rat. On the procedure: They were anesthetized with urethane (1.5 g/kg IP) and the trachea cannulated to aid spontaneous respiration. The stomach was perfused continuously using a modification of the original method of Ghosh & Schild in "Continuous recording of acid secretion in the rat", Br. J. Pharmac. […] The fluid was propelled by a roller pump (Gilson, Minipuls 2), through heating coils to bring its temperature to 37°±1° C. The perfusion fluid was collected by the fundic collecting funnel and passed to a pH electrode connected to a Jenway pH meter (PHM6). An output was taken from the pH meter to a Rikadenki chart recorder for the on-line recording of the pH of the gastric perfusate.
Pentagastrin was stored as a frozen aliquot and diluted to the required concentrations with sterile 0.9% w/v NaCl. Novel compounds were dissolved in sterile 0.9% w/v NaCl on the day of the experiment. Drugs were administered IV through a cannulated jugular vein as a bolus in a dose volume of 1 mL/kg washed in with 0.15 mL 0.9% w/v NaCl. Basal pH was allowed to stabilize before administration of compounds was begun.

Assay [4] in a line: Flexor response in stimulated spinalized decerebrated rat preparation.

With `CC(Cc1c[nH]c2ccccc12)(NC(=O)OC1C2CC3CC(C2)CC1C3)C(=O)NCC(NC(=O)CCC(=O)O)c1ccccc1` (stereo not drawn) [Example 20, [R-(R*,R*)-4-[[2-[[3-(1H-indol-3-yl)-2-methyl-1-oxo-2-[[(tricyclo[3.3.1.1^3,7]dec-2-yloxy)carbonyl]amino]propyl]amino]-1-phenylethyl]amino]-4-oxobutanoic acid], the “reduction of tumor volume at Day 30 compared to control” value with LoVo (xenograft) (10 mg/kg/day by gavage for 20 days) was 53%. The “tumor growth overall, mean tumor volume (FIG. 17)” value in the assay on LoVo (xenograft) (10 mg/kg/day orally, 20 days, p <0.05, ANOVA) is reported as “significantly inhibited tumor growth overall”. Besides, the “day from which tumor size diverged significantly between control and treated animals” value in the assay with LoVo (xenograft) (10 mg/kg/day, p <0.05, ANOVA) came out at 21 days. For the same compound, the “anxiolytic effect, time spent in the open arm end section (FIG. 14)” value in the assay “Rat Elevated X-Maze Test” is on record as “anxiolytic effects”. The “time spent in the light section after withdrawal from alcohol (FIG. 9)” value in assay [1] (alcohol 8% w/v in drinking water 14 days, 24-hour withdrawal, compound 1.0 mg/kg i.p.b.d.) is given as “demonstrates the effectiveness of the compound”. For the same compound, the “time in the light section after withdrawal from cocaine (FIG. 11)” value in assay [1] (cocaine 1.0 mg/kg i.p.b.d. 14 days) is recorded as “increased time in the light section”. For the same compound, the “time spent in the light section after withdrawal from diazepam (FIG. 7)” value in assay [1] (diazepam 10 mg/kg i.p.b.d. seven days, 24-hour withdrawal, compound 1.0 mg/kg i.p.b.d.) was “increased time spent in the light section”. For the same compound, the “time spent in the light area after withdrawal from nicotine (FIG. 5)” value in assay [1] (nicotine 0.1 mg/kg i.p.b.d. 14 days, 24-hour withdrawal, compound 1.0 mg/kg i.p.b.d.) is listed as “increased time spent in the light area”. The “hyperactivity caused by intra-accumbens injection of amphetamine” value in assay [2] was “reduced the hyperactivity”. In addition, in assay [3], the “reversibility of the antagonism” value is recorded as “reversible with full recovery of the response to pentagastrin”. For the same compound, the “effect on stimulation of gastric acid secretion produced by pentagastrin” value in assay [3] (compound IV, anesthetized rat) is given as “antagonized”. The “flexor response (FIG. 16)” value in assay [4] (compound alone, similar to morphine) is on record as “depresses the flexor response”. Moreover, in assay [4] (given with morphine), the “duration of the potentiated effect” value amounted to 3 h and the “effect on flexor response when given with morphine (FIG. 16)” value was “greatly potentiates the effect”.
